The results in this text go back to paper PMC10545747, “Development of cyclopeptide inhibitors of cGAS targeting protein-DNA interaction and phase separation” (Nature Communications, 2023).

“And” between values parts separate entries of the source, which are not always exact repeats. Identical values can stand only once. Square brackets hold non-standard residues; d marks the D form. Peptide text beside a SMILES is read from it.

The subject of test [1] is primary bone marrow-derived macrophages (BMDMs) from C57BL/6 mice. The experiment in a line: qPCR of Ifnb1/Cxcl10 mRNA in BMDMs (ISD or HSV-1). Type of test: cell-based, mouse. Here is the method: (§1) The indicated cells were stimulated with either ISD (Sangon Biotech), HSV-1 (Provided by Dr. Zhengfan Jiang), HSV60mer (Sangon Biotech), SATE-cddA[70], 2’3’-cGAMP (Invivogen, Cat# tlrl-nacga23-1), ADU-S100 (MedChemExpress, Cat# HY-12885A) or Poly(I:C) (Invivogen, Cat# tlrl-pic) after XQ2 or XQ2B treatment. Total RNA was isolated from indicated cells that incubated with the drugs for indicated time or mice tissues by using NucleoZOL reagent (MACHEREY-NAGEL) according to the manufacturer’s instructions. The quantifications of mRNA levels were carried out by real-time PCR using a PerfectStart® Uni RT&qPCR Kit (TransGen Biotech) on the QuantStudio 5 qPCR machine (Applied Biosystems). Samples were carried out in triplicate and the target CT values were normalized to GAPDH CT values. Primers of qPCR used in this study can be found in Supplementary Table S2.
(§2) C57BL/6 6–8 weeks old wild type (WT) mice were purchased from Gempharmatech. C57BL/6 Trex1^+/- mice were purchased from Cyagen. Trex1^-/- mice were generated by further mating the male and female Trex1^+/- mice, and 8-week-old male Trex1^-/- mice were used in the experiment. Mice were housed in groups of up to 5 mice/cage at 18 °C − 24 °C ambient temperatures with 40–60% humidity. Mice were maintained on a 12 h light/ dark cycle 6 am to 6 pm. Food and water were available ad libitum. Femurs and tibias were removed from sex-matched mice of 6–8 weeks old, and the ends were clipped. Marrow was pushed from bones by using a syringe, and cell clumps were broken apart into cell particles by pipetting in PBS, and passed through a 70 μm cell strainer. Cells were resuspended in red blood cell lysis buffer (Solarbio) for 5 min after being centrifuged with 200 × g for 5 min, and were resuspended in cell culture media (DMEM) with an additional M-CSF (50 ng/ml) after centrifugation, and then were seeded into a 12-well plate. Half of the cell culture media was replaced with a fresh medium on the third day, and performed a complete media change on the fifth day. BMDMs were used for subsequent experiments after the seventh day. All the animal experiments in these studies were approved and overseen by the ethics committee of the Laboratory Animal Center of Peking University Shenzhen Graduate School in accordance with the Policy on the Care, Welfare, and Treatment of Laboratory Animals. The assigned approval or accreditation number is AP0020005.
Supplementary Fig. 2. […] (a, b) THP1 cells were
(c) L929, p = 0.0005 (Ifnb1),
BMDMs, p = 0.0001 (Ifnb1), p < 0.0001 (Cxcl10).
representative of three independent experiments in (a-g). (Data are presented as mean ± SD, n = 3 independent
(§3) Source data are provided as a Source Data file.
In general terms: In qPCR the cycle at which signal appears reflects the starting amount.

Test [2] concerns TREX1 knockdown THP1 cells. Kind of test: qPCR of IFNB1 and CXCL10 mRNA after TREX1 siRNA. Type of test: cell-based, human. Here is the method:
as §1
siRNA of TREX1 (siTREX1) was transfected into the indicated cells by Lipofectamine RNAiMAX (Invitrogen) according to the manufacturer’s instructions. Human siTREX1, mouse siTrex1 and negative control siRNAs were purchased from Sangon Biotech. The sequences of siRNAs oligonucleotides can be found in Supplementary Table S2.
Supplementary Fig. 9. XQ2B reduces interferon expression induced by Trex1 deficiency. […]
TREX1 knockdown THP1 cells were treated with DMSO or XQ2B (10 μM) for 24 h, and the mRNA levels of TREX1
(e), IFNB1 and CXCL10 (f) were measured by qPCR. (e) p < 0.0001, (f) p = 0.0001 (Ifnb1); p = 0.0157 (Cxcl10). Data
as §3

In test [3] the test system is Trex1^-/- BMDMs. Kind of test: qPCR of Ifnb1, Cxcl10, Il6 mRNA in Trex1-deficient macrophages. Type of test: cell-based, mouse. Also on record: key to Ifnb1 mRNA level (Fig. 7a) / Cxcl10 mRNA level (Fig. 7a) / Il6 mRNA level (Fig. 7a): fold change relative to WT BMDM group. Here is the method: Fold changes are relative to WT BMDM group. p = 0.002 (Ifnb1); p = 0.008 (Cxcl10); p = 0.0005 (Il6). b Schematic representation illustrating the experimental design in the Trex1^-/- mice model of autoimmune diseases. c Survival curves of WT and Trex1^−/− mice treated with DMSO or XQ2B (10 mg/kg) every other day for 11 consecutive days (n = 10 mice per group). p = 0.0352. d WT mice (n = 6) or Trex1^-/- mice (n = 6) were injected intravenously with DMSO or 10 mg/kg XQ2B every other day for 7 consecutive days. Representative H&E-stained tissue sections from WT or Trex1^-/- mice treated with DMSO or XQ2B. The panels are at ×20 magnification. […] Scale bar, 50 μm. Data are representative of two independent experiments with similar results in (f), or three independent experiments in (a) or two independent experiments in (d, e). […] Source data are provided as a Source Data file.
as §1
as §2, with “Half of the cell culture media was replaced with a fresh medium on the third day, and performed a complete media change on the fifth day. BMDMs were used for subsequent experiments after the seventh day. All the animal experiments in these studies were approved and overseen by the ethics committee of the Laboratory Animal Center of Peking University Shenzhen Graduate School in accordance with the Policy on the Care, Welfare, and Treatment of Laboratory Animals. The assigned approval or accreditation number is AP0020005.” left out

In the case of `CC(C)C[C@@H]1NC(=O)[C@H](CCCNC(=N)N)NC(=O)[C@H](C(C)C)NC(=O)[C@@H]2CCCN2C(=O)[C@@H](Cc2ccccc2)NC(=O)[C@H](CC(C)C)NC(=O)[C@H](CCCNC(=N)N)NC(=O)[C@H](C(C)C)NC(=O)[C@H](C)NC(=O)[C@@H](Cc2ccccc2)NC1=O` [XQ2, Cyclo (LfAVRLfPVR)] (cyclo(L[dF]AVRL[dF]PVR)), the “Ifnb1 and Cxcl10 expression induced by ISD and HSV-1” value in test [1] (10 μM) was “significantly inhibited the expression of Ifnb1 and its downstream gene Cxcl10”. In addition, in test [1] (HSV-1+XQ2), the “Cxcl10 mRNA (Fig. S2d)” value was 143.811 and 140.79 and 131.38; the “Ifnb1 mRNA (Fig. S2d)” value was 30.4765 and 34.353 and 35.6259. In addition, in test [1] (ISD+XQ2), the “Cxcl10 mRNA (Fig. S2c)” value was 62.8779 and 59.0359 and 62.3708; the “Ifnb1 mRNA (Fig. S2c)” value is 709.298 and 846.919 and 741.167. In test [1] (XQ2 alone), the “Cxcl10 mRNA (Fig. S2c)” value was 1.406 and 1.738 and 1.597; the “Cxcl10 mRNA (Fig. S2d)” value is 1.406 and 1.738 and 1.597; the “Ifnb1 mRNA (Fig. S2c)” value is 0.9266 and 0.5519 and 1.072; the “Ifnb1 mRNA (Fig. S2d)” value is 0.9266 and 0.5519 and 1.072.
Consider `CC(C)C[C@@H]1NC(=O)[C@H](CCCNC(=N)N)NC(=O)[C@H](C(C)C)NC(=O)[C@@H]2CCCN2C(=O)[C@@H](Cc2ccccc2)NC(=O)[C@H](CC(C)C)NC(=O)[C@H](CCCNC(=N)N)NC(=O)[C@H]([C@@H](C)O)NC(=O)[C@H](C)NC(=O)[C@@H](Cc2ccccc2)NC1=O` [XQ2B] (cyclo([dF]ATRL[dF]PVRL)), for which the “Relative mRNA level Cxcl10” value in test [2] (Fig. S9f, TREX1 knockdown (siTREX1 +) THP1 cells, XQ2B +, individual replicates, siTREX1 alone 2.64-3.32) is 2.255 and 1.956 and 2.174. For the same compound, the “Relative mRNA level Ifnb1” value in test [2] (Fig. S9f, TREX1 knockdown (siTREX1 +) THP1 cells, XQ2B +, individual replicates, siTREX1 alone 15.6-16.4) is 8.9487 and 8.582 and 9.951. Also, in test [2] (THP1, 10 μM, 24 h), the “expression of Ifnb1, Cxcl10 with Trex1-siRNA” value is “markedly inhibited the expression of these genes in mouse L929 and human THP1 cells with Trex1-siRNA”. In addition, in test [3] (10 μM, 24 h), the “expression of Ifnb1, Cxcl10 and Il6 in Trex1^-/- BMDMs” value is “significantly suppressed the expression of Ifnb1, Cxcl10 and Il6 in Trex1^-/- BMDMs”. Moreover, in test [3] (Trex1-/- BMDMs, XQ2B vs DMSO), the “Cxcl10 mRNA level (Fig. 7a)” value is 8.243 and 7.282 and 8.602; the “Ifnb1 mRNA level (Fig. 7a)” value was 2.99 and 2.308 and 2.77; the “Il6 mRNA level (Fig. 7a)” value is 7.711 and 7.588 and 8.111.
